What was measured:
[1] = Drug level in BALB/c mouse bile assessed as compound formation treated with monoHER at 500 mg/kg, ip measured after 60 mins by LC-DAD-TOF-MS analysis; type: ADME, organism-based; parameters: dose 500 mg/kg, route intraperitoneal; conditions: in vivo, 1 h
[2] = Drug level in BALB/c mouse bile treated with 7-mono-O-(beta-hydroxyethyl)-rutoside assessed as relative metabolite level at 500 mg/kg, ip measured after 60 mins by LC-DAD-TOF-MS analysis; type: ADME, organism-based; parameters: dose 500 mg/kg, route intraperitoneal; conditions: in vivo, 1 h
[3] = Retention time of the compound by LC-DAD-TOF-MS analysis; type: physicochemical
[4] = Drug level in BALB/c mouse bile assessed as compound formation treated with monoHER at 500 mg/kg, ip measured after 240 mins by LC-DAD-TOF-MS analysis; type: ADME, organism-based; parameters: dose 500 mg/kg, route intraperitoneal; conditions: in vivo, 4 h
[5] = Half life in mouse plasma; type: ADME, cell-free
[6] = Half life in mouse heart; type: ADME
[7] = Drug metabolism in BALB/c mouse bile assessed as (2S,3S,4S,5R,6S)-6-(5-(7-(carboxymethoxy)-5-hydroxy-4-oxo-3-((2S,3R,4S,5S,6R)-3,4,5-trihydroxy-6-(((2R,3R,4R,5R,6S)-3,4,5-trihydroxy-6-methyltetrahydro-2H-pyran-2-yloxy)methyl)tetrahydro-2H-pyran-2-yloxy)-4H-chromen-2-yl)-2-hydroxyphenoxy)-3,4,5-trihydroxytetrahydro-2H-pyran-2-carboxylic acid formation at 500 mg/kg, ip measured after 60 mins by LC-DAD-TOF-MS analysis; type: ADME, organism-based; parameters: dose 500 mg/kg, route intraperitoneal; conditions: in vivo, 1 h
[8] = Drug metabolism in BALB/c mouse bile assessed as (2S,3S,4S,5R,6S)-6-(5-(7-(carboxymethoxy)-5-hydroxy-4-oxo-3-((2S,3R,4S,5S,6R)-3,4,5-trihydroxy-6-(((2R,3R,4R,5R,6S)-3,4,5-trihydroxy-6-methyltetrahydro-2H-pyran-2-yloxy)methyl)tetrahydro-2H-pyran-2-yloxy)-4H-chromen-2-yl)-2-methoxyphenoxy)-3,4,5-trihydroxytetrahydro-2H-pyran-2-carboxylic acid formation at 500 mg/kg, ip measured after 60 mins by LC-DAD-TOF-MS analysis; type: ADME, organism-based; parameters: dose 500 mg/kg, route intraperitoneal; conditions: in vivo, 1 h
[9] = Drug metabolism in BALB/c mouse bile assessed as 2-(3,4-dimethoxyphenyl)-5-hydroxy-7-(2-hydroxyethoxy)-3-((2S,3R,4S,5S,6R)-3,4,5-trihydroxy-6-(hydroxymethyl)tetrahydro-2H-pyran-2-yloxy)-4H-chromen-4-one formation at 500 mg/kg, ip measured after 240 mins by LC-DAD-TOF-MS analysis; type: ADME, organism-based; parameters: dose 500 mg/kg, route intraperitoneal; conditions: in vivo
[10] = Drug metabolism in BALB/c mouse bile assessed as 2-(3,4-dimethoxyphenyl)-5-hydroxy-7-(2-hydroxyethoxy)-3-((2S,3R,4S,5S,6R)-3,4,5-trihydroxy-6-(((2R,3R,4R,5R,6S)-3,4,5-trihydroxy-6-methyltetrahydro-2H-pyran-2-yloxy)methyl)tetrahydro-2H-pyran-2-yloxy)-4H-chromen-4-one formation at 500 mg/kg, ip measured after 60 mins by LC-DAD-TOF-MS analysis; type: ADME, organism-based; parameters: dose 500 mg/kg, route intraperitoneal; conditions: in vivo, 1 h
[11] = Drug metabolism in BALB/c mouse bile assessed as (S)-4-amino-5-((R)-1-(carboxymethylamino)-3-(2,3-dihydroxy-6-(5-hydroxy-7-(2-hydroxyethoxy)-4-oxo-3-((2S,3R,4S,5S,6R)-3,4,5-trihydroxy-6-(((2R,3R,4R,5R,6S)-3,4,5-trihydroxy-6-methyltetrahydro-2H-pyran-2-yloxy)methyl)tetrahydro-2H-pyran-2-yloxy)-4H-chromen-2-yl)phenylthio)-1-oxopropan-2-ylamino)-5-oxopentanoic acid formation at 500 mg/kg, ip measured after 60 mins by LC-DAD-TOF-MS analysis; type: ADME, organism-based; parameters: dose 500 mg/kg, route intraperitoneal; conditions: in vivo, 1 h
[12] = Drug metabolism in BALB/c mouse bile assessed as (2S,2'S,3S,3'S,4S,4'S,5R,5'R,6S,6'S)-6,6'-(4-(5-hydroxy-7-(2-hydroxyethoxy)-4-oxo-3-((2S,3R,4S,5S,6R)-3,4,5-trihydroxy-6-(((2R,3R,4R,5R,6S)-3,4,5-trihydroxy-6-methyltetrahydro-2H-pyran-2-yloxy)methyl)tetrahydro-2H-pyran-2-yloxy)-4H-chromen-2-yl)-1,2-phenylene)bis(oxy)bis(3,4,5-trihydroxytetrahydro-2H-pyran-2-carboxylic acid) formation at 500 mg/kg, ip measured after 60 mins by LC-DAD-TOF-MS analysis; type: ADME, organism-based; parameters: dose 500 mg/kg, route intraperitoneal; conditions: in vivo, 1 h
[13] = Drug metabolism in BALB/c mouse bile assessed as 5-hydroxy-2-(3-hydroxy-4-methoxyphenyl)-7-(2-hydroxyethoxy)-3-((2S,3R,4S,5S,6R)-3,4,5-trihydroxy-6-(hydroxymethyl)tetrahydro-2H-pyran-2-yloxy)-4H-chromen-4-one formation at 500 mg/kg, ip measured after 240 mins by LC-DAD-TOF-MS analysis; type: ADME, organism-based; parameters: dose 500 mg/kg, route intraperitoneal; conditions: in vivo
[14] = Drug metabolism in BALB/c mouse bile assessed as (2S,3S,4S,5R,6S)-3,4,5-trihydroxy-6-(5-(5-hydroxy-7-(2-hydroxyethoxy)-4-oxo-3-((2S,3R,4S,5S,6R)-3,4,5-trihydroxy-6-(((2R,3R,4R,5R,6S)-3,4,5-trihydroxy-6-methyltetrahydro-2H-pyran-2-yloxy)methyl)tetrahydro-2H-pyran-2-yloxy)-4H-chromen-2-yl)-2-methoxyphenoxy)tetrahydro-2H-pyran-2-carboxylic acid formation at 500 mg/kg, ip measured after 60 mins by LC-DAD-TOF-MS analysis; type: ADME, organism-based; parameters: dose 500 mg/kg, route intraperitoneal; conditions: in vivo, 1 h
[15] = Drug metabolism in BALB/c mouse bile assessed as 2-(2-(3,4-dihydroxyphenyl)-5-hydroxy-4-oxo-3-((2S,3R,4S,5S,6R)-3,4,5-trihydroxy-6-(((2R,3R,4R,5R,6S)-3,4,5-trihydroxy-6-methyltetrahydro-2H-pyran-2-yloxy)methyl)tetrahydro-2H-pyran-2-yloxy)-4H-chromen-7-yloxy)acetic acid formation at 500 mg/kg, ip measured after 60 mins by LC-DAD-TOF-MS analysis; type: ADME, organism-based; parameters: dose 500 mg/kg, route intraperitoneal; conditions: in vivo, 1 h
[16] = Drug metabolism in BALB/c mouse bile assessed as 5-hydroxy-2-(3-hydroxy-4-methoxyphenyl)-7-(2-hydroxyethoxy)-3-((2S,3R,4S,5S,6R)-3,4,5-trihydroxy-6-(((2R,3R,4R,5R,6S)-3,4,5-trihydroxy-6-methyltetrahydro-2H-pyran-2-yloxy)methyl)tetrahydro-2H-pyran-2-yloxy)-4H-chromen-4-one formation at 500 mg/kg, ip measured after 60 mins by LC-DAD-TOF-MS analysis; type: ADME, organism-based; parameters: dose 500 mg/kg, route intraperitoneal; conditions: in vivo, 1 h
[17] = Drug metabolism in BALB/c mouse bile assessed as 2-(5-hydroxy-2-(3-hydroxy-4-methoxyphenyl)-4-oxo-3-((2S,3R,4S,5S,6R)-3,4,5-trihydroxy-6-(((2R,3R,4R,5R,6S)-3,4,5-trihydroxy-6-methyltetrahydro-2H-pyran-2-yloxy)methyl)tetrahydro-2H-pyran-2-yloxy)-4H-chromen-7-yloxy)acetic acid formation at 500 mg/kg, ip measured after 60 mins by LC-DAD-TOF-MS analysis; type: ADME, organism-based; parameters: dose 500 mg/kg, route intraperitoneal; conditions: in vivo, 1 h

Row | Structure (SMILES) | Drug metabolism [1] | Relative metabolite level in bile [2] | Retention_time [3] | further results
1 | C[C@@H]1O[C@@H](OC[C@H]2O[C@@H](Oc3c(-c4ccc(O[C@@H]5O[C@H](C(=O)O)[C@@H](O)[C@H](O)[C@H]5O)c(O[C@@H]5O[C@H](C(=O)O)[C@@H](O)[C@H](O)[C@H]5O)c4)oc4cc(OCCO)cc(O)c4c3=O)[C@H](O)[C@@H](O)[C@@H]2O)[C@H](O)[C@H](O)[C@H]1O | metabolite_detected | 0.7% | 7.1 min | –
2 | COc1ccc(-c2oc3cc(OCCO)cc(O)c3c(=O)c2O[C@@H]2O[C@H](CO)[C@@H](O)[C@H](O)[C@H]2O)cc1O | – | 0.9% | 7.6 min | Drug metabolism [4]: metabolite_detected
3 | COc1ccc(-c2oc3cc(OCCO)cc(O)c3c(=O)c2O[C@@H]2O[C@H](CO)[C@@H](O)[C@H](O)[C@H]2O)cc1OC | – | 0.6% | 12.5 min | Drug metabolism [4]: metabolite_detected
4 | COc1ccc(-c2oc3cc(OCCO)cc(O)c3c(=O)c2O[C@@H]2O[C@H](CO[C@@H]3O[C@@H](C)[C@H](O)[C@@H](O)[C@H]3O)[C@@H](O)[C@H](O)[C@H]2O)cc1OC | metabolite_detected | 0.5% | 14.8 min | –
5 | C[C@@H]1O[C@@H](OC[C@H]2O[C@@H](Oc3c(-c4ccc(O)c(O[C@@H]5O[C@H](C(=O)O)[C@@H](O)[C@H](O)[C@H]5O)c4)oc4cc(OCC(=O)O)cc(O)c4c3=O)[C@H](O)[C@@H](O)[C@@H]2O)[C@H](O)[C@H](O)[C@H]1O | metabolite_detected | 0.3% | 7.8 min | –
6 | COc1ccc(-c2oc3cc(OCC(=O)O)cc(O)c3c(=O)c2O[C@@H]2O[C@H](CO[C@@H]3O[C@@H](C)[C@H](O)[C@@H](O)[C@H]3O)[C@@H](O)[C@H](O)[C@H]2O)cc1O[C@@H]1O[C@H](C(=O)O)[C@@H](O)[C@H](O)[C@H]1O | metabolite_detected | 0.4% | 8.8 min | –
7 | COc1ccc(-c2oc3cc(OCCO)cc(O)c3c(=O)c2O[C@@H]2O[C@H](CO[C@@H]3O[C@@H](C)[C@H](O)[C@@H](O)[C@H]3O)[C@@H](O)[C@H](O)[C@H]2O)cc1O[C@@H]1O[C@H](C(=O)O)[C@@H](O)[C@H](O)[C@H]1O | metabolite_detected | 9% | 6.9 min | –
8 | C[C@@H]1O[C@@H](OC[C@H]2O[C@@H](Oc3c(-c4ccc(O)c(O)c4)oc4cc(OCC(=O)O)cc(O)c4c3=O)[C@H](O)[C@@H](O)[C@@H]2O)[C@H](O)[C@H](O)[C@H]1O | metabolite_detected | 2% | 9.7 min | –
9 | COc1ccc(-c2oc3cc(OCCO)cc(O)c3c(=O)c2O[C@@H]2O[C@H](CO[C@@H]3O[C@@H](C)[C@H](O)[C@@H](O)[C@H]3O)[C@@H](O)[C@H](O)[C@H]2O)cc1O | metabolite_detected | 40% | 11.1 min | –
10 | COc1ccc(-c2oc3cc(OCC(=O)O)cc(O)c3c(=O)c2O[C@@H]2O[C@H](CO[C@@H]3O[C@@H](C)[C@H](O)[C@@H](O)[C@H]3O)[C@@H](O)[C@H](O)[C@H]2O)cc1O | metabolite_detected | 5% | 12.3 min | –
11 | C[C@@H]1O[C@@H](OC[C@H]2O[C@@H](Oc3c(-c4ccc(O)c(O)c4SC[C@H](NC(=O)CC[C@H](N)C(=O)O)C(=O)NCC(=O)O)oc4cc(OCCO)cc(O)c4c3=O)[C@H](O)[C@@H](O)[C@@H]2O)[C@H](O)[C@H](O)[C@H]1O | metabolite_detected | 0.6% | 3.4 min | –
12 | COc1cccc2c1C(=O)c1c(O)c3c(c(O)c1C2=O)C[C@@](O)(C(=O)CO)C[C@@H]3O[C@H]1C[C@H](N)[C@H](O)[C@H](C)O1 [DOXORUBICIN] | – | – | – | half-life [5]: 12.6 h; half-life [6]: 11.5 h
13 | C[C@@H]1O[C@@H](OC[C@H]2O[C@@H](Oc3c(-c4ccc(O)c(O)c4)oc4cc(OCCO)cc(O)c4c3=O)[C@H](O)[C@@H](O)[C@@H]2O)[C@H](O)[C@H](O)[C@H]1O [MONOXERUTIN] | – | 29% | 8.5 min | Drug metabolism [7]: metabolite_detected; Drug metabolism [8]: metabolite_detected; Drug metabolism [9]: metabolite_detected; Drug metabolism [10]: metabolite_detected; half-life [5]: 0.197 h; half-life [6]: 0.27 h; Drug metabolism [11]: metabolite_detected; Drug metabolism [12]: metabolite_detected; Drug metabolism [13]: metabolite_detected; Drug metabolism [14]: metabolite_detected; Drug metabolism [15]: metabolite_detected; Drug metabolism [16]: metabolite_detected; Drug metabolism [17]: metabolite_detected

Source: ChEMBL document CHEMBL3525923, “Identification of the metabolites of the antioxidant flavonoid 7-mono-O-(β-hydroxyethyl)-rutoside in mice” (Drug Metab Dispos, 2011)
